Legend:
windgrass = test: Test E windgrass; assay type: in vivo, Apera spica-venti; details: Preemergence
cotton = test: Test C postemergence cotton; assay type: in vivo, Gossypium hirsutum; details: 0 to 100 scale, 0 no effect, 100 complete control
Method: (§1) Compounds evaluated in this test were formulated in a non-phytotoxic solvent mixture which included a surfactant and applied to plants that were grown for various periods of time before treatment (postemergence application). A mixture of sandy loam soil and greenhouse potting mix in a 60:40 ratio was used for the postemergence test.
(§2) Plantings of these crops and weed species were adjusted to produce plants of appropriate size for the postemergence test. All plant species were grown using normal greenhouse practices. Crop and weed species include arrowleaf sida (Sida rhombifolia), barnyardgrass (Echinochloa crus-galli), cocklebur (Xanthium strumarium), common ragweed (Ambrosia elatior), corn (Zea mays), cotton (Gossypium hirsutum), eastern black nightshade (Solanum ptycanthum), fall panicum (Panicum dichotomiflorum), field bindweed (Convolvulus arvensis), giant foxtail (Setaria faberii), hairy beggarticks (Bidens pilosa), ivyleaf morningglory (Ipomoea hederacea), johnsongrass (Sorghum halepense), ladysthumb smartweed (Polygonum persicaria), lambsquarters (Chenopodium album), large crabgrass (Digitaria sanguinalis), purple nutsedge (Cyperus rotundus), redroot pigweed (Amaranthus retroflexus), soybean (Glycine max), surinam grass (Brachiaria decumbens), velvetleaf (Abutilon theophrasti) and wild poinsettia (Euphorbia heterophylla).
(§3) Treated plants and untreated controls were maintained in a greenhouse for approximately 14, to 21 days, after which all treated plants were compared to untreated controls and visually evaluated. Plant response ratings, summarized in Table C, were based upon a 0 to 100 scale where 0 was no effect and 100 was complete control. A dash response (−) means no test result.

eastern black nightshade = test: Test C postemergence eastern black nightshade; assay type: in vivo, Solanum ptycanthum; details: 0 to 100 scale, 0 no effect, 100 complete control
In short: (§4)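 Compounds in a non-phytotoxic solvent with surfactant were sprayed postemergence on greenhouse-grown plants in 60:40 sandy loam/potting mix. After about 14 to 21 days, visual ratings against untreated controls on a 0 (no effect) to 100 (complete control) scale.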

wild poinsettia = test: Test C postemergence wild poinsettia; assay type: in vivo, Euphorbia heterophylla; details: 0 to 100 scale, 0 no effect, 100 complete control
Method: as §1, §2, §3

wild mustard = test: Test E wild mustard; assay type: in vivo, Sinapis arvensis; details: Preemergence
spring wheat [1] = test: Test E spring wheat; assay type: in vivo, Triticum aestivum; details: Postemergence
Method: as §1, with “in the 1- to 4-leaf stage” for “grown for various periods of time before treatment”
(§5) Plantings of these crops and weed species were adjusted to produce plants of appropriate size for the postemergence test. All plant species were grown using normal greenhouse practices. Crop and weed species include annual bluegrass (Poa annua), blackgrass (Alopecurus myosuroides), black nightshade (Solanum nigra), chickweed (Stellaria media), common poppy (Papaver rhoeas), deadnettle (Lamium amplexicaule), downy brome (Bromus tectorum), field violet (Viola arvensis), galium (Galium aparine), green foxtail (Setaria viridis), Italian ryegrass (Lolium multiflorum), jointed goatgrass (Aegilops cylindrica), kochia (Kochia scoparia), lambsquarters (Chenopodium album), littleseed canarygrass (Phalaris minor), rape (Brassica napus), redroot pigweed (Amaranthus retroflexus), Russian thistle (Salsola kali), scentless chamomile (Matricaria inodora), spring barley (Hordeum vulgare), sugar beet (Beta vulgaris), sunflower (Helianthus annuus), ivyleaf speedwell (Veronica hederaefolia), spring wheat (Triticum aestivum), winter wheat (Triticum aestivum), wild buckwheat (Polygonum convolvulus), wild mustard (Sinapis arvensis), wild oat (Avena fatua), windgrass (Apera spica-venti) and winter barley (Hordeum vulgare).
(§6) Treated plants and untreated controls were maintained in a greenhouse for approximately 21 to 28 days, after which all treated plants were compared to untreated controls and visually evaluated. […] A dash response (-) means no test result.

common ragweed = test: Test C postemergence common ragweed; assay type: in vivo, Ambrosia elatior; details: 0 to 100 scale, 0 no effect, 100 complete control
In short: as §4

spring wheat [2] = test: Test E spring wheat; assay type: in vivo, Triticum aestivum; details: Preemergence
sugar beet = test: Test E sugar beet; assay type: in vivo, Beta vulgaris; details: Preemergence
deadnettle = test: Test E deadnettle; assay type: in vivo, Lamium amplexicaule; details: Preemergence
redroot pigweed [3] = test: Test C postemergence redroot pigweed; assay type: in vivo, Amaranthus retroflexus; details: 0 to 100 scale, 0 no effect, 100 complete control
In short: as §4

redroot pigweed [4] = test: Test E redroot pigweed; assay type: in vivo, Amaranthus retroflexus; details: Preemergence
annual bluegrass = test: Test E annual bluegrass; assay type: in vivo, Poa annua; details: Postemergence
In short: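 For postemergence, plants at the 1- to 4-leaf stage, in a 60:40 mix of sandy loam and potting mix, treated with compound formulated in a surfactant-containing non-phytotoxic solvent. Visual assessment versus untreated controls followed roughly 21–28 days in the greenhouse.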

field violet = test: Test E field violet; assay type: in vivo, Viola arvensis; details: Postemergence
Method: as §1, with “in the 1- to 4-leaf stage” for “grown for various periods of time before treatment”
as §5, §6

galium = test: Test E galium; assay type: in vivo, Galium aparine; details: Preemergence
spring barley = test: Test E spring barley; assay type: in vivo, Hordeum vulgare; details: Preemergence
jointed goatgrass = test: Test E jointed goatgrass; assay type: in vivo, Aegilops cylindrica; details: Preemergence
downy brome = test: Test E downy brome; assay type: in vivo, Bromus tectorum; details: Preemergence
[5] = Rate 125 g/ha, 0 to 100 scale (0 no effect, 100 complete control)
[6] = Rate 500 g/ha, 0 to 100 scale where 0 is no effect and 100 is complete control
[7] = Rate 250 g/ha, 0 to 100 scale (0 no effect, 100 complete control)
[8] = Rate 500 g/ha, 0 to 100 scale, 0 no effect, 100 complete control
[9] = Rate 62 g/ha, 0 to 100 scale, 0 no effect, 100 complete control

## CCn1c(=O)on(C(=O)N(c2ccc(F)cc2F)C(C)C)c1=O [Compound 116]
windgrass; [5]
  Plant response rating, Windgrass: 100
windgrass; [6]
  Plant response rating, Windgrass: 100
cotton; Rate 140 g/ha
  Plant response rating Cotton: 10
cotton; Rate 280 g/ha
  Plant response rating Cotton: 50
cotton; Rate 560 g/ha
  Plant response rating Cotton: 50
Eastern black nightshade; Rate 140 g/ha
  Plant response rating E. blacknightsh: 0
Eastern black nightshade; Rate 280 g/ha
  Plant response rating E. blacknightsh: 0
Eastern black nightshade; Rate 560 g/ha
  Plant response rating E. blacknightsh: 10
Eastern black nightshade; Rate 1120 g/ha
  Plant response rating E. blacknightsh: 50
Wild poinsettia; Rate 140 g/ha
  Plant response rating Wild poinsettia: 0
Wild poinsettia; Rate 280 g/ha
  Plant response rating Wild poinsettia: 0
Wild poinsettia; Rate 560 g/ha
  Plant response rating Wild poinsettia: 0
Wild mustard; [5]
  Plant response rating, Wild mustard: 75
Wild mustard; Rate 250 g/ha, 0 to 100 scale
  Plant response rating, Wild mustard: 85
Wild mustard; [6]
  Plant response rating, Wild mustard: 65
Spring wheat [1]; Rate 62 g/ha, 0 to 100 scale
  Plant response rating, Spring Wheat: 5
Spring wheat [1]; Rate 125 g/ha, 0 to 100 scale
  Plant response rating, Spring Wheat: 0
Spring wheat [1]; [7]
  Plant response rating, Spring Wheat: 10
Spring wheat [1]; [8]
  Plant response rating, Spring Wheat: 10
Common ragweed; Rate 140 g/ha
  Plant response rating Common ragweed: 0
Common ragweed; Rate 280 g/ha
  Plant response rating Common ragweed: 0
Common ragweed; Rate 560 g/ha
  Plant response rating Common ragweed: 0
Common ragweed; Rate 1120 g/ha
  Plant response rating Common ragweed: 0
Spring wheat [2]; [5]
  Plant response rating, Spring Wheat: 15
Spring wheat [2]; Rate 250 g/ha, 0 to 100 scale
  Plant response rating, Spring Wheat: 80
Spring wheat [2]; [6]
  Plant response rating, Spring Wheat: 100
Sugar beet; [5]
  Plant response rating, Sugar beet: 50
Sugar beet; Rate 250 g/ha, 0 to 100 scale
  Plant response rating, Sugar beet: 85
Sugar beet; [6]
  Plant response rating, Sugar beet: 95
deadnettle; [5]
  Plant response rating, Deadnettle: 95
deadnettle; Rate 250 g/ha, 0 to 100 scale
  Plant response rating, Deadnettle: 80
deadnettle; [6]
  Plant response rating, Deadnettle: 80
Redroot pigweed [3]; Rate 140 g/ha
  Plant response rating, Redroot pigweed: 0
Redroot pigweed [3]; Rate 280 g/ha
  Plant response rating, Redroot pigweed: 0
Redroot pigweed [3]; Rate 560 g/ha
  Plant response rating, Redroot pigweed: 0
Redroot pigweed [3]; Rate 1120 g/ha
  Plant response rating, Redroot pigweed: 20
Redroot pigweed [4]; [5]
  Plant response rating, Redroot pigweed: 100
Redroot pigweed [4]; Rate 250 g/ha, 0 to 100 scale
  Plant response rating, Redroot pigweed: 100
Redroot pigweed [4]; [6]
  Plant response rating, Redroot pigweed: 100
Annual bluegrass; Rate 62 g/ha, 0 to 100 scale
  Plant response rating, Annual bluegras: 100
Annual bluegrass; Rate 125 g/ha, 0 to 100 scale
  Plant response rating, Annual bluegras: 50
Annual bluegrass; [7]
  Plant response rating, Annual bluegras: 70
Annual bluegrass; [8]
  Plant response rating, Annual bluegras: 75
Field violet; Rate 62 g/ha, 0 to 100 scale
  Plant response rating, Field violet: 60
Field violet; Rate 125 g/ha, 0 to 100 scale
  Plant response rating, Field violet: 0
Field violet; [7]
  Plant response rating, Field violet: 0
Field violet; [8]
  Plant response rating, Field violet: 0
galium; [5]
  Plant response rating, Galium: 100
galium; Rate 250 g/ha, 0 to 100 scale
  Plant response rating, Galium: 100
galium; [6]
  Plant response rating, Galium: 100
Spring barley; [5]
  Plant response rating, Spring Barley: 40
Spring barley; Rate 250 g/ha, 0 to 100 scale
  Plant response rating, Spring Barley: 75
Spring barley; [6]
  Plant response rating, Spring Barley: 100
Jointed goatgrass; [5]
  Plant response rating, Jointed goatgra: 30
Jointed goatgrass; Rate 250 g/ha, 0 to 100 scale
  Plant response rating, Jointed goatgra: 100
Jointed goatgrass; [6]
  Plant response rating, Jointed goatgra: 65
Downy brome; [5]
  Plant response rating, Downy brome: 60
Downy brome; Rate 250 g/ha, 0 to 100 scale
  Plant response rating, Downy brome: 50
Downy brome; [6]
  Plant response rating, Downy brome: 70

## CCn1c(=O)on(C(=O)N(c2ccc(F)cc2)C(C)C)c1=O [Compound 107]
windgrass; [9]
  Plant response rating, Windgrass: 100
windgrass; [5]
  Plant response rating, Windgrass: 100
cotton; Rate 140 g/ha
  Plant response rating Cotton: 45
cotton; Rate 280 g/ha
  Plant response rating Cotton: 60
cotton; Rate 560 g/ha
  Plant response rating Cotton: 80
cotton; Rate 1120 g/ha
  Plant response rating Cotton: 90
Eastern black nightshade; Rate 140 g/ha
  Plant response rating E. blacknightsh: 50
Eastern black nightshade; Rate 280 g/ha
  Plant response rating E. blacknightsh: 50
Eastern black nightshade; Rate 560 g/ha
  Plant response rating E. blacknightsh: 70
Eastern black nightshade; Rate 1120 g/ha
  Plant response rating E. blacknightsh: 95
Wild poinsettia; Rate 140 g/ha
  Plant response rating Wild poinsettia: 0
Wild poinsettia; Rate 280 g/ha
  Plant response rating Wild poinsettia: 15
Wild poinsettia; Rate 560 g/ha
  Plant response rating Wild poinsettia: 40
Wild poinsettia; Rate 1120 g/ha
  Plant response rating Wild poinsettia: 80
Wild mustard; [9]
  Plant response rating, Wild mustard: 100
Wild mustard; [5]
  Plant response rating, Wild mustard: 85
Wild mustard; Rate 250 g/ha, 0 to 100 scale
  Plant response rating, Wild mustard: 100
Spring wheat [1]; Rate 62 g/ha, 0 to 100 scale
  Plant response rating, Spring Wheat: 0
Spring wheat [1]; Rate 125 g/ha, 0 to 100 scale
  Plant response rating, Spring Wheat: 5
Spring wheat [1]; [7]
  Plant response rating, Spring Wheat: 10
Common ragweed; Rate 140 g/ha
  Plant response rating Common ragweed: 0
Common ragweed; Rate 280 g/ha
  Plant response rating Common ragweed: 50
Common ragweed; Rate 560 g/ha
  Plant response rating Common ragweed: 50
Common ragweed; Rate 1120 g/ha
  Plant response rating Common ragweed: 50
Spring wheat [2]; [9]
  Plant response rating, Spring Wheat: 60
Spring wheat [2]; [5]
  Plant response rating, Spring Wheat: 75
Spring wheat [2]; Rate 250 g/ha, 0 to 100 scale
  Plant response rating, Spring Wheat: 85
Sugar beet; [9]
  Plant response rating, Sugar beet: 70
Sugar beet; [5]
  Plant response rating, Sugar beet: 100
Sugar beet; Rate 250 g/ha, 0 to 100 scale
  Plant response rating, Sugar beet: 100
deadnettle; [9]
  Plant response rating, Deadnettle: 50
deadnettle; [5]
  Plant response rating, Deadnettle: 60
deadnettle; Rate 250 g/ha, 0 to 100 scale
  Plant response rating, Deadnettle: 85
Redroot pigweed [3]; Rate 280 g/ha
  Plant response rating, Redroot pigweed: 75
Redroot pigweed [3]; Rate 560 g/ha
  Plant response rating, Redroot pigweed: 80
Redroot pigweed [3]; Rate 1120 g/ha
  Plant response rating, Redroot pigweed: 80
Redroot pigweed [4]; [9]
  Plant response rating, Redroot pigweed: 100
Redroot pigweed [4]; [5]
  Plant response rating, Redroot pigweed: 100
Redroot pigweed [4]; Rate 250 g/ha, 0 to 100 scale
  Plant response rating, Redroot pigweed: 100
Annual bluegrass; Rate 62 g/ha, 0 to 100 scale
  Plant response rating, Annual bluegras: 20
Annual bluegrass; Rate 125 g/ha, 0 to 100 scale
  Plant response rating, Annual bluegras: 5
Annual bluegrass; [7]
  Plant response rating, Annual bluegras: 50
Field violet; Rate 62 g/ha, 0 to 100 scale
  Plant response rating, Field violet: 0
Field violet; Rate 125 g/ha, 0 to 100 scale
  Plant response rating, Field violet: 25
Field violet; [7]
  Plant response rating, Field violet: 0
galium; [9]
  Plant response rating, Galium: 50
galium; [5]
  Plant response rating, Galium: 70
galium; Rate 250 g/ha, 0 to 100 scale
  Plant response rating, Galium: 100
Spring barley; [9]
  Plant response rating, Spring Barley: 30
Spring barley; [5]
  Plant response rating, Spring Barley: 70
Spring barley; Rate 250 g/ha, 0 to 100 scale
  Plant response rating, Spring Barley: 70
Jointed goatgrass; [9]
  Plant response rating, Jointed goatgra: 40
Jointed goatgrass; [5]
  Plant response rating, Jointed goatgra: 50
Jointed goatgrass; Rate 250 g/ha, 0 to 100 scale
  Plant response rating, Jointed goatgra: 50
Downy brome; [9]
  Plant response rating, Downy brome: 50
Downy brome; [5]
  Plant response rating, Downy brome: 60
Downy brome; Rate 250 g/ha, 0 to 100 scale
  Plant response rating, Downy brome: 75

From patent US6737383B1, “Herbicidal oxadiazolidines” (priority 1999, dated 2004)
